Consider one molecule from PMC10924921, “Mi-2β promotes immune evasion in melanoma by activating EZH2 methylation” (Nature Communications, 2024).

Holding throughout (experiment): biochemical
Parameters in all cases: KINOMEscan active-site competition binding panel (468 kinase assays), per cent of control at 1000 nM
Settings in all cases: KINOMEscan per cent of control (binding competition); read-out: Percent Control

One test has as its target AURKC (Homo sapiens, UniProt Q9UQB9). From the text: (§1) Figure S7 / Percent Control
The next test concerns the target LTK (Homo sapiens, UniProt P29376).
Source text: as §1

In another test the target is RET(M918T) (Homo sapiens, UniProt P07949, M918T).
Source text: as §1

For a further test, the target named is PRKD1 (Homo sapiens, UniProt Q15139).
Source text: as §1

A further test addresses CDK3 (Homo sapiens, UniProt Q00526).
Source text: as §1

The target in another test is T1, GCN2(Kin.Dom.2,S808G) (Homo sapiens, UniProt Q9P2K8, S808G).
T1 construct: gene EIF2AK4; Kin.Dom.2
Source text: as §1

The target in a further test is HUNK (Homo sapiens, UniProt P57058).
Source text: as §1

In a further test the target is EPHA3 (Homo sapiens, UniProt P29320).
Source text: as §1

In a further test the target is MARK4 (Homo sapiens, UniProt Q96L34).
Source text: as §1

Another test addresses BRSK1 (Homo sapiens, UniProt Q8TDC3).
Source text: as §1

In the next test the target is PIKFYVE (Homo sapiens, UniProt Q9Y2I7).
Source text: as §1

Test [1] has as its target T2, RSK2(Kin.Dom.1-N-terminal) (Homo sapiens, UniProt P51812).
T2 construct: gene RPS6KA3; Kin.Dom.1-N-terminal
Source text: as §1

Another test addresses FGFR2 (Homo sapiens, UniProt P21802).
Source text: as §1

The target of another test is SBK1 (Homo sapiens, UniProt Q52WX2).
Source text: as §1

For the next test, the target named is FLT4 (Homo sapiens, UniProt P35916).
Source text: as §1

Another test addresses T3, ERK8 (Homo sapiens, UniProt Q8TD08).
T3 construct: gene MAPK15
Source text: as §1

A further test concerns the target T4, MRCKA (Homo sapiens, UniProt Q5VT25).
T4 construct: gene CDC42BPA
Source text: as §1

The target in a further test is T5, CDC2L2 (Homo sapiens, UniProt Q9UQ88).
T5 construct: gene CDK11A
Source text: as §1

In the next test the target is TRPM6 (Homo sapiens, UniProt Q9BX84).
Source text: as §1

In the next test the target is T6, ICK (Homo sapiens, UniProt Q9UPZ9).
T6 construct: gene CILK1
Source text: as §1

For another test, the target named is T7, IKK-beta (Homo sapiens, UniProt O14920).
T7 construct: gene IKBKB
Source text: as §1

The target of the next test is CSNK1A1L (Homo sapiens, UniProt Q8N752).
Source text: as §1

A further test has as its target PIK3CA(Q546K) (Homo sapiens, UniProt P42336, Q546K).
Source text: as §1

The next test has as its target T8, SIK (Homo sapiens, UniProt P57059).
T8 construct: gene SIK1
Source text: as §1

PRKD1, sequence (Q15139 whole entry): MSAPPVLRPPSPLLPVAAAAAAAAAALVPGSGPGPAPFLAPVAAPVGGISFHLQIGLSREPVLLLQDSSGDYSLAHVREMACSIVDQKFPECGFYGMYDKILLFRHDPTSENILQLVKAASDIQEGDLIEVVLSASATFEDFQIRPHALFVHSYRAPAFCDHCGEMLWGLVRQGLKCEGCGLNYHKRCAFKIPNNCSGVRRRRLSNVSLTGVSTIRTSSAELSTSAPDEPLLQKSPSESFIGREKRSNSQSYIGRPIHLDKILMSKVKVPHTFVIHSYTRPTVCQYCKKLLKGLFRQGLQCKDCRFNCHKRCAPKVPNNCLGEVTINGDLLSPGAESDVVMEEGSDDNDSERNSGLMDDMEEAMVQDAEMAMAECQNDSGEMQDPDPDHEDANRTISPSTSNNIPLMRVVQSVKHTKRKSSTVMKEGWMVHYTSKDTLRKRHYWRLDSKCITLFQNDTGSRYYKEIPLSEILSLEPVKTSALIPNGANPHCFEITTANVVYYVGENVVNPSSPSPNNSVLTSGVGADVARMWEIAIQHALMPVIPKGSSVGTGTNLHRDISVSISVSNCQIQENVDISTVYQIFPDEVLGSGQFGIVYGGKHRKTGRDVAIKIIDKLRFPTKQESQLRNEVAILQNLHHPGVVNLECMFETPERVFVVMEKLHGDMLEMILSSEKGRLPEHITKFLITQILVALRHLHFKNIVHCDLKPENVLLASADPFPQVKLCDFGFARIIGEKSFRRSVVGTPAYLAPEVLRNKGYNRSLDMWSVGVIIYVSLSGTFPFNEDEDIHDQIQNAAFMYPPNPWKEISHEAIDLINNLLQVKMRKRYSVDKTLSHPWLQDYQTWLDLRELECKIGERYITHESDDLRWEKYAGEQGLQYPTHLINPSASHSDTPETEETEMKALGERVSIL
MARK4, sequence (Q96L34 whole entry): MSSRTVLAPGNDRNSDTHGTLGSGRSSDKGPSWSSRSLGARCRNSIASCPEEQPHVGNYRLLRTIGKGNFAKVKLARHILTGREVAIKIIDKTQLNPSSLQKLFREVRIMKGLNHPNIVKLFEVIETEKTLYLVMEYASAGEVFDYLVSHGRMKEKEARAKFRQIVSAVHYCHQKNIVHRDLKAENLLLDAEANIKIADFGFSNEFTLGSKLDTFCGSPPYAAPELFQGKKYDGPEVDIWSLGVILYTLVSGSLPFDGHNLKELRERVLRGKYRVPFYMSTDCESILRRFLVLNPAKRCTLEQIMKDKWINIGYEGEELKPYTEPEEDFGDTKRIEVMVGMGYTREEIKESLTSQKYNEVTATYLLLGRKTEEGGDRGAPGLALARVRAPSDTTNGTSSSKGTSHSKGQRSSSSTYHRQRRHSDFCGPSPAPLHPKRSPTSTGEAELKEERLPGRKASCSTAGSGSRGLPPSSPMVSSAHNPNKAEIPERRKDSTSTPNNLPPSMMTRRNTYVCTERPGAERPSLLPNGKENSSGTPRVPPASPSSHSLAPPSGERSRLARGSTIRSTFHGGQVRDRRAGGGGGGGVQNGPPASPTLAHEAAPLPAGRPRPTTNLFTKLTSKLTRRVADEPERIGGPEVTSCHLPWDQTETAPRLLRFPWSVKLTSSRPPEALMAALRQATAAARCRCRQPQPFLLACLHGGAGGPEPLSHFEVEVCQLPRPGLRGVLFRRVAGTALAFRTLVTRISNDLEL
T1 sequence (Q9P2K8 whole entry S808G): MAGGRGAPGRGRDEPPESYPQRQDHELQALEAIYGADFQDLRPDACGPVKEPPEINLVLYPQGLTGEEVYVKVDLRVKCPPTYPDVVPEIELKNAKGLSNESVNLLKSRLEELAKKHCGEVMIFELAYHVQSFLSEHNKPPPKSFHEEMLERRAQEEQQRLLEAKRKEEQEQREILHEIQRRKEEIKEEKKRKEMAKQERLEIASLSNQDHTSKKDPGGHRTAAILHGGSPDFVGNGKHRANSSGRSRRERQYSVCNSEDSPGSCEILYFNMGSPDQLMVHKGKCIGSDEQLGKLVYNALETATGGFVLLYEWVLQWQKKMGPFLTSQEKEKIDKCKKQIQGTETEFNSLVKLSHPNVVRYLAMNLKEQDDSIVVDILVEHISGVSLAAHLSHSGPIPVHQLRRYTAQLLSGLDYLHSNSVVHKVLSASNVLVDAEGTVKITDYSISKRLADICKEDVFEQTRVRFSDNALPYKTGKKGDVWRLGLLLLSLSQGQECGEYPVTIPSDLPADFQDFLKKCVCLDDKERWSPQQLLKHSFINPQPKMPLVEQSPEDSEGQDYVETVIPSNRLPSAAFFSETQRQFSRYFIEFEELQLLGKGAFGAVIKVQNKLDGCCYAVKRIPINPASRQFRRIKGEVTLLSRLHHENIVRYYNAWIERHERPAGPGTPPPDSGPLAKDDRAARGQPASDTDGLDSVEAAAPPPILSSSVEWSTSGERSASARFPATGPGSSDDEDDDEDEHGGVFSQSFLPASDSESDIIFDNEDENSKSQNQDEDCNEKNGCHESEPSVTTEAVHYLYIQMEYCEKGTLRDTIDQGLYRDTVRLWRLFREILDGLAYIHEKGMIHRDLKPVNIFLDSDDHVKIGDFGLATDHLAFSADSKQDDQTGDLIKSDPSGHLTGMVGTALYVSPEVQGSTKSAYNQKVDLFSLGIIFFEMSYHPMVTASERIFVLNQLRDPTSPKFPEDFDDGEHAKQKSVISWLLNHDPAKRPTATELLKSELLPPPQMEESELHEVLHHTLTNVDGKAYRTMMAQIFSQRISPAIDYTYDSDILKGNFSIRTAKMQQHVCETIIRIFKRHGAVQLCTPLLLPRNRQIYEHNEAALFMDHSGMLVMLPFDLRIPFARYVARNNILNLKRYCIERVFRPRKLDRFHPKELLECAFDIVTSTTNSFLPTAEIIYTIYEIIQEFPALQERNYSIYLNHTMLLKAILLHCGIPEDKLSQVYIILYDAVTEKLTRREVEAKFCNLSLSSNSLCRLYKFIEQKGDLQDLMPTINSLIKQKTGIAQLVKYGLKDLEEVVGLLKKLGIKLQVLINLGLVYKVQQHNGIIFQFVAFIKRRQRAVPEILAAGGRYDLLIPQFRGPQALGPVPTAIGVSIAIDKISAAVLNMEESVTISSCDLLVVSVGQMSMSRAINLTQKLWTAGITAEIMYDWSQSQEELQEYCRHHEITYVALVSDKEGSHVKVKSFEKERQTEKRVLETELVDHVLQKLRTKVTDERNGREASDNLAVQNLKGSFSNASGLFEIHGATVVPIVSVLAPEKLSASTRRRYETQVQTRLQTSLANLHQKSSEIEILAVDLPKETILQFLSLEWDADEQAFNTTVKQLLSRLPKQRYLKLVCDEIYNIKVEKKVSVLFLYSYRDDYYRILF
T3 sequence (Q8TD08 whole entry): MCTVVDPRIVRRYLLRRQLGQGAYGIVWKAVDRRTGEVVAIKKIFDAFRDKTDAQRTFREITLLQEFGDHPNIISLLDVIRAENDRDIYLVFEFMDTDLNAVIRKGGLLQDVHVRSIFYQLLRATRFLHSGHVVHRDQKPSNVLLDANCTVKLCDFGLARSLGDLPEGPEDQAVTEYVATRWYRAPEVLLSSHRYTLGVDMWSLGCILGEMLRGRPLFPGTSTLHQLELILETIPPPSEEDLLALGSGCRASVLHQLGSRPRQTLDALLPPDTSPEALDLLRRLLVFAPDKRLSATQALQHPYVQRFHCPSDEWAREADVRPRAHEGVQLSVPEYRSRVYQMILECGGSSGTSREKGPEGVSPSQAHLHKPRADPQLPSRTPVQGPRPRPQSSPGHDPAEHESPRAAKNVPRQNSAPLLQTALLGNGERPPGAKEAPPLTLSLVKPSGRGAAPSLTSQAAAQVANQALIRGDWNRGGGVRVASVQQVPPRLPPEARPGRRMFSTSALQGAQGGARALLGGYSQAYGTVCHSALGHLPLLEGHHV
CSNK1A1L, sequence (Q8N752 whole entry): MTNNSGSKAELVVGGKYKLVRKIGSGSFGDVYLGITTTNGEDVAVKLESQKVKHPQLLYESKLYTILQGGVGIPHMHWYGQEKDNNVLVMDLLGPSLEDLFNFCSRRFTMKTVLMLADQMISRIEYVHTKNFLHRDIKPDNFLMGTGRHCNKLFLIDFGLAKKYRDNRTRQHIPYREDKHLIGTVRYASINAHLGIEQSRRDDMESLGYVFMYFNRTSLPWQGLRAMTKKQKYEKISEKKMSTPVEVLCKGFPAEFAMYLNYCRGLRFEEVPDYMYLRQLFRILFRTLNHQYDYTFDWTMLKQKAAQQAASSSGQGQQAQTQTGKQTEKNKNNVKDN
T2 sequence (P51812 whole entry): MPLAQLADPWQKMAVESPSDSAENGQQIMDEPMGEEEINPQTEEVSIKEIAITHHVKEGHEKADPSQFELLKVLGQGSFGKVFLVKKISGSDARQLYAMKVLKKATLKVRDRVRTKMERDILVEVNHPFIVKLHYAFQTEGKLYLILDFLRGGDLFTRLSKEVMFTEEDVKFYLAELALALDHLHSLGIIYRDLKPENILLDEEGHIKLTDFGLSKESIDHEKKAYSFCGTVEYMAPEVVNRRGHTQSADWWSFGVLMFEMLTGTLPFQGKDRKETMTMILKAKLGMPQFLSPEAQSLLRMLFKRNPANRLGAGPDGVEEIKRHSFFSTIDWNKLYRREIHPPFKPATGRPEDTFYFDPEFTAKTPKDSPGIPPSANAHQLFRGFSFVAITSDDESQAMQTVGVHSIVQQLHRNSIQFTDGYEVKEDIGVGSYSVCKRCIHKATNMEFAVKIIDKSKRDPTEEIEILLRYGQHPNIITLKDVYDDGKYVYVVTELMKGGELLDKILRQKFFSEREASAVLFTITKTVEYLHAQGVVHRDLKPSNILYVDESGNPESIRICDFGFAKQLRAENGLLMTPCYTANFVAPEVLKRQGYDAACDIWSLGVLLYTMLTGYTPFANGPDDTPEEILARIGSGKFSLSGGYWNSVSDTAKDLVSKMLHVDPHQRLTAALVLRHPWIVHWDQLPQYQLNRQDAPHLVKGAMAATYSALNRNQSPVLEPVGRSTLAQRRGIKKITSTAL

On to `Cn1c(=O)[nH]c2ccc(-c3cccc(C(=O)NC4CCn5ccnc5C4)c3)cc21` (stereo not drawn) [Z36-MP5], for which the remaining binding at 1 µM at AURKC worked out at 100%; on LTK it was 82%; at RET(M918T) it was 90%; on PRKD1, 100%; at CDK3, 43%; at GCN2(Kin.Dom.2,S808G), 94%. Also, the remaining binding at 1 µM at HUNK stood at 74%; at EPHA3, 93%; at MARK4, 95%; on BRSK1 it was 92%; at PIKFYVE, 96%; in test [1], 67%. Also, the remaining binding at 1 µM at FGFR2 amounted to 37%; on SBK1, 74%; at FLT4 it was 80%; at ERK8, 83%; on MRCKA, 100%; on CDC2L2, 99%. Moreover, the remaining binding at 1 µM on TRPM6 was 90%; on ICK, 100%; on IKK-beta it was 66%; on CSNK1A1L, 99%; at PIK3CA(Q546K), 54%; at SIK it was 81%.
